Test results as given in patent publication EP4759810A1, “PROTAC TARGETING BCL-XL PROTEIN AND USE THEREOF” (BEIJING SUNCELL BIO-MEDICAL CO., LTD., priority 2023, dated 2025).

Assays:
[1] = Metabolic stability assay in liver microsomes (human); assay type: in vitro ADME
In short: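 Human or mouse liver microsomes at 0.5 mg/mL with 1 µM compound at 37 °C, plus or minus NADPH; samples at 0–60 min quenched in cold acetonitrile with internal standards, analysed by LC-MS/MS. Half-life and intrinsic clearance from linear fit of ln % remaining versus time.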

Molt-4 cells = test: Detection of E3 enzyme-dependence: Molt-4 cell killing with or without pomalidomide (CCK-8); assay type: cell-based; settings: 10 µM pomalidomide, Figure 2
MRC5 cells = test: Senescent cell killing activity test, MRC5 cell model (CCK-8); assay type: cell-based, human
Procedure: (§1) To avoid replication of the induced senescent cells, low-passage proliferating HEF cells (<10 passages), MRC5 cells (<6 passages), and BJ cells (<10 passages) were used as normal controls. For chemical drug induced senescence, HEF cells were treated with 10 µM etoposide (Selleck, S1225) for 36-48 hours, MRC5 cells were treated with 5 µM bleomycin (Selleck, S1225) for 72 hours, and BJ cells were treated with 10 µg/mL bleomycin for 72 hours. Three days after the treatment, the cells were subcultured in fresh culture medium at a 1:3 ratio for 72 hours before further analysis and use.
(§2) Non-senescent and induced-senescent HEF cells, non-senescent and induced-senescent MRC5 cells, and non-senescent and induced-senescent BJ cells were respectively digested with trypsin, and centrifuged at 1000 rpm for 5 minutes. Then, the supernatant was removed, and the cells were resuspended in fresh DMEM culture medium containing 10% fetal bovine serum for counting. The cell density was adjusted so that the non-senescent cell density was 4000 cells/100 µL and the senescent cell density was 7000 cells/100 µL. 100 µL of the cell suspension was added to each well of a 96-well transparent cell culture plate. It was noted that the edge wells of the 96-well plate were not used as testing wells, and 300 µL of PBS alone was added to these wells to reduce evaporation of the culture medium. The 96-well plates with the well-plated cells were placed back in a 37°C incubator for overnight culture until the cells adhered. On the next day, the small molecule compounds to be tested were prepared and added after the cells had adhered.
(§3) A series of small molecule concentration gradients (0.01, 0.03, 0.1, 0.3, 1, 3, 10, and 25 µM) were pre-set, and a series of 2× drug dilutions for the above concentrations were prepared in DMEM culture medium containing 10% fetal bovine serum. 100 µL of the above DMEM culture medium containing the gradient concentrations of the drug was added to each well of the 96-well plate that had been well-plated with cells, so that the final drug concentration in each well was the pre-set series of concentrations. Three replicate wells were used for each test drug concentration. The 96-well plates were placed back in a 37°C incubator, and cell viability was measured after three days.
(§4) Three days after adding the drug, the plates were taken out, and the supernatant was discarded. 100 µL of pre-prepared CCK-8 working solution was added to each well. The CCK-8 working solution was obtained through diluting a CCK-8 stock solution (C0041, Beyotime) with a serum-free DMEM culture medium by 10-fold volumn. The 96-well plates containing the CCK-8 working solution were placed back in the 37°C incubator and incubated for 0.5-2 hours. The plates were then taken out, and the absorbance value (OD value) of each well was measured at a wavelength of 450 nm. The cell viability in each experimental group was calculated according to the following formula: Relative cell viability (%) = (Blank control group - Experimental group) / Blank control group × 100%.

BJ cells = test: Senescent cell killing activity test, BJ cell model (CCK-8); assay type: cell-based, human; settings: Figures 3M-3O
Procedure: as §1, §2, §3, §4

[2] = human liver microsomes 0.5 mg/mL, 1 µM compound, 37°C

| Clint [1, 2] | half-life at 1 µM [1, 2] | microsomal CLint at 1 µM ([1]; human liver microsomes, read-out: clearance rate (metabolic clearance rate)) | SMILES | cell killing activity after addition of pomalidomide (+poma) compared to without (-poma) (Molt-4 cells) | activity for killing senescent cells at lower concentrations compared to A-1331852 (MRC5 cells; 0.01 µM and 0.03 µM) | selectivity for senescent cells (MRC5 cells; Figures 3G-3L) | killing effects for senescent cells (BJ cells; bleomycin-induced senescent skin-derived BJ cell model) | killing effect for the normal early-passage BJ cells (BJ cells; normal BJ cells) |
| --- | --- | --- | --- | --- | --- | --- | --- | --- |
| 2.77 µL/min/mg protein | 8.34 h | 2.77 µL/min/mg | O=C1CCC(N2C(=O)c3cccc(NCCN4CCC(CN5CCN(CC#Cc6ccc(OCCCc7ccc(N8CCc9cccc(C(=O)Nc%10nc%11ccccc%11s%10)c9C8)nc7C(=O)O)c(F)c6)CC5)CC4)c3C2=O)C(=O)N1 (stereo not drawn) [APQ2] | significantly reduced cell killing activity |  |  |  |  |
|  |  |  | O=C1CCN(c2ccc(N3CCC(CN4CCN(CC#Cc5ccc(OCCCc6ccc(N7CCc8cccc(C(=O)Nc9nc%10ccccc%10s9)c8C7)nc6C(=O)O)c(F)c5)CC4)CC3)cc2)C(=O)N1 [APQ10] | significantly reduced cell killing activity | superior to that of A-1331852 | better selectivity for senescent cells | highly selective and potent killing effects for senescent cells | without significant killing effect for the normal early-passage BJ cells |
